Measured values taken from a compilation of properties of binary mixtures (doi:10.1016/j.molliq.2009.05.001).

Experiment: xn = mol fraction of the nth substance listed
Details: 101 kPa; for viscosity: 298.1 K; for electrical conductivity: 298.15 K

Compound | viscosity (x1 = 1) | electrical conductivity (x1 = 1) | viscosity (x2 = 0) | viscosity (x2 = 0.2164) | viscosity (x2 = 0.3218) | viscosity (x2 = 0.474) | electrical conductivity (x2 = 0) | electrical conductivity (x2 = 0.0448) | electrical conductivity (x2 = 0.2164) | electrical conductivity (x2 = 0.3218) | electrical conductivity (x2 = 0.474) | electrical conductivity (x2 = 0.6254) | electrical conductivity (x2 = 0.7856) | electrical conductivity (x2 = 0.9447)
CC[n+]1ccn(C)c1.F[B-](F)(F)F + CC[n+]1ccn(C)c1.N#C[N-]C#N | 36.8 mPa·s | 1.55 S/m |  |  |  |  |  |  |  |  |  |  |  | 
CC[n+]1ccn(C)c1.N#C[N-]C#N + CC[n+]1ccn(C)c1.F[B-](F)(F)F |  |  | 17.4 mPa·s | 19.7 mPa·s | 21.4 mPa·s | 23 mPa·s | 2.83 S/m | 2.79 S/m | 2.61 S/m | 2.49 S/m | 2.3 S/m | 2.1 S/m | 1.87 S/m | 1.64 S/m
